Measurements published in patent publication US20230031406A1, “COMPOUNDS AND COMPOSITIONS FOR TREATING CONDITIONS ASSOCIATED WITH NLRP ACTIVITY” (Novartis AG, priority 2018, published 2023).
One block for each molecule: values may come before it.

Legend:
[1] = system: PMA-differentiated THP-1 cells; experiment: hTHP-1 assay containing 10% fetal bovine serum (IL-1β production, Tables B5 and B6); type: cell-based, human
Outline: (§1)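 IL-1β release from PMA-differentiated THP-1 macrophage-like cells was triggered by 5 μM gramicidin for 2 h after 1 h compound exposure, then measured by HTRF.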

[2] = system: PMA-differentiated THP-1 cells; experiment: IL-1β production in PMA-differentiated THP-1 cells stimulated with gramicidin (hTHP-1 assay containing 2% fetal bovine serum; Procedures 1 and 2); type: cell-based, human
Outline: as §1

[3] = Homo sapiens, THP-1, read-out: hTHP-1 IC50 in 10% FBS, hTHP-1 assay containing 10% fetal bovine serum, Table B5
[4] = Homo sapiens, THP-1, read-out: hTHP-1 IC50 in 2% FBS, hTHP-1 assay containing 2% fetal bovine serum, Table B5

IC50 ([1]; read-out: hTHP-1 IC50 in 10% FBS, hTHP-1 assay containing 10% fetal bovine serum, Table B5, listed as 814): 1 to 5 µM
IC50 ([2]; read-out: hTHP-1 IC50 in 2% FBS, hTHP-1 assay containing 2% fetal bovine serum, Table B5, listed as 814): 1 to 5 µM
SMILES: CC(C)n1cc(F)c(S(N)(=O)=NC(=O)Nc2c3c(nc4c2CCC42CC2)CCC3)n1 (single isomer, unassigned) [Compound 1102b, (S) or (R)-4-Fluoro-1-isopropyl-N′-((1′,5′,6′,7′-tetrahydro-2′H-spiro [cyclopropane-1,3′-dicyclopenta[b,e]pyridin]-8′-yl)carbamoyl)-1H-pyrazole-3-sulfonimidamide]

IC50 [1, 3]: 0.04 to 0.2 µM
IC50 [2, 4]: 0.2 to 1 µM
SMILES: CCn1cc(F)c([S@](N)(=O)=NC(=O)Nc2c(C)c(C(F)(F)F)nc3c2[C@@H](C)CC3)n1 (single isomer, unassigned) [Compound 1100b, (R, S) or (R, R)-N′-((3,5-dimethyl-2-(trifluoromethyl)-6,7-dihydro-5H-cyclopenta[b]pyridin-4-yl)carbamoyl)-1-ethyl-4-fluoro-1H-pyrazole-3-sulfonimidamide]

IC50 ([1]; read-out: hTHP-1 IC50 in 10% FBS, hTHP-1 assay containing 10% fetal bovine serum, Table B5, listed as 816): 1 to 5 µM
IC50 ([2]; read-out: hTHP-1 IC50 in 2% FBS, hTHP-1 assay containing 2% fetal bovine serum, Table B5, listed as 816): 5 to 30 µM
SMILES: CC(C)n1cc(F)c(S(N)(=O)=NC(=O)Nc2c3c(nc(C4CC4)c2C2CC2)CCC3)n1 (single isomer, unassigned) [Compound 1103b, (S) or (R)-N′-((2,3-dicyclopropyl-6,7-dihydro-5H-cyclopenta[b]pyridin-4-yl)carbamoyl)-4-fluoro-1-isopropyl-1H-pyrazole-3-sulfonimidamide]

IC50 ([1]; read-out: hTHP-1 IC50 in 10% FBS, hTHP-1 assay containing 10% fetal bovine serum, Table B5, listed as 819): 5 to 30 µM
IC50 ([2]; read-out: hTHP-1 IC50 in 2% FBS, hTHP-1 assay containing 2% fetal bovine serum, Table B5, listed as 819): 5 to 30 µM
SMILES: CCn1cc(F)c(S(N)(=O)=NC(=O)Nc2c(C)c(C(F)(F)F)nc3c2C(C)CC3)n1 (single isomer, unassigned) [Compound 1100c, (S, R) or (S, S)-N′-((3,5-dimethyl-2-(trifluoromethyl)-6,7-dihydro-5H-cyclopenta[b]pyridin-4-yl)carbamoyl)-1-ethyl-4-fluoro-1H-pyrazole-3-sulfonimidamide]

IC50 ([1]; read-out: hTHP-1 IC50 in 10% FBS, hTHP-1 assay containing 10% fetal bovine serum, Table B6): 0.04 to 0.2 µM
SMILES: NS(=O)(=NC(=O)Nc1c2c(nc3c1CCC31CC1)CCC2)c1nn(C2CC2)cc1F (single isomer, unassigned) [Example 866, (S) or (R)-1-cyclopropyl-4-fluoro-N′-((1′,5′,6′,7′-tetrahydro-2′H-spiro[cyclopropan-1,3′-dicyclopenta[b,e]pyridin]-8′-yl)carbamoyl)-1H-pyrazole-3-sulfonimidamide]

IC50 [1, 3]: 5 to 30 µM
SMILES: Cc1c(C(F)(F)F)nc2c(c1NC(=O)N=S(N)(=O)c1cnc(C(F)(F)F)s1)CCC2 (centres unmarked) [Compound 1118, N′-((3-methyl-2-(trifluoromethyl)-6,7-dihydro-5H-cyclopenta [b]pyridin-4-yl)carbamoyl)-2-(trifluoromethyl) thiazole-5-sulfonimidamide]

IC50 [1, 3]: 0.008 to 0.04 µM
SMILES: C[C@@H]1CCc2c1nc1c(c2NC(=O)N=S(N)(=O)c2nn(C(C)(F)F)cc2F)CCC1 (stereo partly drawn) [Compound 1111, 1-(1,1-Difluoroethyl)-4-fluoro-N′-(((R)-3-methyl-1,2,3,5,6,7-hexahydrodicyclopenta [b,e]pyridin-8-yl)carbamoyl)-1H-pyrazole-3-sulfonimidamide]

IC50 ([1]; read-out: hTHP-1 IC50 in 10% FBS, hTHP-1 assay containing 10% fetal bovine serum, Table B5, listed as 841): 1 to 5 µM
SMILES: Cc1c(C(F)(F)F)nc2c(c1NC(=O)N=S(N)(=O)c1scc(C(C)(C)O)c1F)CCC2 (single isomer, unassigned) [Compound 1108b, (S) or (R)-3-fluoro-4-(2-hydroxypropan-2-yl)-N′-((3-methyl-2-(trifluoromethyl)-6,7-dihydro-5H-cyclopenta[b]pyridin-4-yl)carbamoyl)thiophene-2-sulfonimidamide]

IC50 ([1]; read-out: hTHP-1 IC50 in 10% FBS, hTHP-1 assay containing 10% fetal bovine serum, Table B5, listed as 846): 0.2 to 1 µM
SMILES: CC(F)(F)n1cc(F)c(S(N)(=O)=NC(=O)Nc2c3c(nc4c2CCC4)CCC3)n1 (single isomer, unassigned) [Compound 1115a, (R) or (S)-1-(1,1-difluoroethyl)-4-fluoro-N′-((l,2,3,5,6,7-hexa-hydrodicyclopenta[b,e]pyridin-8-yl)carbamoyl)-1H-pyrazole-3-sulfonimidamide]

IC50 [1, 3]: 0.04 to 0.2 µM
SMILES: Cc1nc2c(c(NC(=O)N=S(N)(=O)c3scc(C(C)(C)O)c3F)c1-c1ccccc1)CCC2 (centres unmarked) [Compound 1110, 3-Fluoro-4-(2-hydroxy-propan-2-yl)-N′-((2-methyl-3-phenyl-6,7-dihydro-5H-cyclopenta [b]pyridin-4-yl)carbamoyl)thiophene-2-sulfonimidamide]

Further lines, the molecule ahead of its results:

SMILES: CCn1cc(F)c(S(N)(=O)=NC(=O)Nc2c(C)c(C(F)(F)F)nc3c2C(C)CC3)n1 (centres unmarked) [Compound 1100, N′-((3,5-dimethyl-2-(trifluoromethyl)-6,7-dihydro-5H-cyclopenta[b]pyridin-4-yl)carbamoyl)-1-ethyl-4-fluoro-1H-pyrazole-3-sulfonimidamide]
IC50 ([1]; read-out: hTHP-1 IC50 in 10% FBS, hTHP-1 assay containing 10% fetal bovine serum, Table B5, listed as 795): 1 to 5 µM
IC50 ([2]; read-out: hTHP-1 IC50 in 2% FBS, hTHP-1 assay containing 2% fetal bovine serum, Table B5, listed as 795): 1 to 5 µM

SMILES: CC(C)n1cc(F)c(S(N)(=O)=NC(=O)Nc2c3c(nc4c2CCC42CC2)CCC3)n1 (centres unmarked) [Compound 1102, 4-Fluoro-1-isopropyl-N′-((1′,5′,6′,7′-tetrahydro-2′H-spiro [cyclopropane-1,3′-dicyclopenta[b,e]pyridin]-8′-yl)carbamoyl)-1H-pyrazole-3-sulfonimidamide]
IC50 [1, 3]: 0.008 to 0.04 µM
IC50 [2, 4]: 0.008 to 0.04 µM

SMILES: CCn1cc(F)c(S(N)(=O)=NC(=O)Nc2c(C)c(C(F)(F)F)nc3c2CC(C)C3)n1 (centres unmarked) [Compound 1101, N′-((3,6-dimethyl-2-(trifluoromethyl)-6,7-dihydro-5H-cyclopenta[b]pyridin-4-yl)carbamoyl)-1-ethyl-4-fluoro-1H-pyrazole-3-sulfonimidamide]
IC50 ([1]; read-out: hTHP-1 IC50 in 10% FBS, hTHP-1 assay containing 10% fetal bovine serum, Table B5, listed as 796): 0.2 to 1 µM
IC50 ([2]; read-out: hTHP-1 IC50 in 2% FBS, hTHP-1 assay containing 2% fetal bovine serum, Table B5, listed as 796): 0.008 to 0.04 µM

SMILES: CC(C)n1cc(F)c(S(N)(=O)=NC(=O)Nc2c3c(nc(C4CC4)c2C2CC2)CCC3)n1 (single isomer, unassigned) [Compound 1103a, (R) or (S)-N′-((2,3-dicyclopropyl-6,7-dihydro-5H-cyclopenta[b]pyridin-4-yl)carbamoyl)-4-fluoro-1-isopropyl-1H-pyrazole-3-sulfonimidamide]
IC50 ([1]; read-out: hTHP-1 IC50 in 10% FBS, hTHP-1 assay containing 10% fetal bovine serum, Table B5, listed as 815): 0.008 to 0.04 µM
IC50 ([2]; read-out: hTHP-1 IC50 in 2% FBS, hTHP-1 assay containing 2% fetal bovine serum, Table B5, listed as 815): 0.04 to 0.2 µM

SMILES: CCn1cc(F)c(S(N)(=O)=NC(=O)Nc2c(C)c(C(F)(F)F)nc3c2C(C)CC3)n1 (single isomer, unassigned) [Compound 1100d, (S, S) or (S, R)-N′-((3,5-dimethyl-2-(trifluoromethyl)-6,7-dihydro-5H-cyclopenta[b]pyridin-4-yl)carbamoyl)-1-ethyl-4-fluoro-1H-pyrazole-3-sulfonimidamide]
IC50 ([1]; Homo sapiens, THP-1, read-out: hTHP-1 IC50 in 10% FBS, 10% fetal bovine serum, Table B5, value printed as a bound, not a class symbol): > 30 µM
IC50 ([2]; Homo sapiens, THP-1, read-out: hTHP-1 IC50 in 2% FBS, 2% fetal bovine serum, Table B5, value printed as a bound, not a class symbol): > 30 µM

SMILES: CCn1cc(F)c(S(N)(=O)=NC(=O)Nc2c(C)c(C(F)(F)F)nc3c2CC(C)C3)n1 (single isomer, unassigned) [Compound 1101b, (S, R) or (S, S)-N′-((3,6-dimethyl-2-(trifluoromethyl)-6,7-dihydro-5H-cyclopenta[b]pyridin-4-yl)carbamoyl)-1-ethyl-4-fluoro-1H-pyrazole-3-sulfonimidamide]
IC50 ([1]; read-out: hTHP-1 IC50 in 10% FBS, hTHP-1 assay containing 10% fetal bovine serum, Table B5, listed as 822): 1 to 5 µM
IC50 ([2]; read-out: hTHP-1 IC50 in 2% FBS, hTHP-1 assay containing 2% fetal bovine serum, Table B5, listed as 822): 1 to 5 µM

SMILES: CC(C)(O)c1csc(S(N)(=O)=NC(=O)Nc2c3c(nc(C4CC4)c2C2CC2)CCC3)c1F (centres unmarked) [Compound 1006, N′-((2,3-dicyclopropyl-6,7-dihydro-5H-cyclopenta[b]pyridin-4-yl)-carbamoyl)-3-fluoro-4-(2-hydroxypropan-2-yl)thiophene-2-sulfonimidamide]
IC50 [1, 3]: 0.04 to 0.2 µM

SMILES: CC(C)n1cc(F)c(S(N)(=O)=NC(=O)Nc2c3c(nc(C(F)(F)F)c2C2CC2)CCC3)n1 (single isomer, unassigned) [Compound 1104a, (R) or (S)-N′-((3-cyclopropyl-2-(trifluoromethyl)-6,7-dihydro-5H-cyclopenta[b]pyridin-4-yl)carbamoyl)-4-fluoro-1-isopropyl-1H-pyrazole-3-sulfonimidamide]
IC50 ([1]; read-out: hTHP-1 IC50 in 10% FBS, hTHP-1 assay containing 10% fetal bovine serum, Table B5, listed as 826): 0.04 to 0.2 µM

SMILES: CCn1cc(F)c(S(N)(=O)=NC(=O)Nc2c3c(nc(C(F)(F)F)c2C(F)(F)F)CCC3)n1 (centres unmarked) [Example 856, N′-((2,3-bis(trifluoromethyl)-6,7-dihydro-5H-cyclopenta[b]pyridin-4-yl)carbamoyl)-1-ethyl-4-fluoro-1H-pyrazole-3-sulfonimidamide]
IC50 ([1]; Homo sapiens, THP-1, read-out: hTHP-1 IC50 in 10% FBS, hTHP-1 assay containing 10% fetal bovine serum, Table B6): 0.04 to 0.2 µM
